{"source": "patent US20150105252A1", "about": "“SUBSTITUTED PYRAZOLES AS HERBICIDES” (E I DU PONT DE NEMOURS AND COMPANY, priority 2013, published 2015)", "key": {"barnyardgrass [1]": {"system": "barnyardgrass", "assay": "Test A preemergence", "type": "in vivo, Echinochloa crus-galli", "procedure,_shortened": "(§1)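 Visual injury rating, 0–100 (0 no effect, 100 complete control), vs untreated controls ~10 days after treatment in greenhouse. Pre: directed soil spray on seeded loam/sand. Post: 2–10 cm plants, 1–2 leaf stage. Formulation: non-phytotoxic solvent mix + surfactant.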"}, "corn [2]": {"system": "corn", "assay": "Test A preemergence", "type": "in vivo, Zea mays", "procedure,_shortened": "as §1"}, "foxtail, giant [3]": {"system": "foxtail, giant", "assay": "Test A preemergence", "type": "in vivo, Setaria faberii", "procedure,_shortened": "as §1"}, "ducksalad": {"system": "ducksalad", "assay": "Test B flood", "type": "in vivo, Heteranthera limosa", "conditions": "250 g ai/ha, visual rating on 0 to 100 scale (0 no effect, 100 complete control), 13 to 15 days", "procedure,_shortened": "(§2)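 2-leaf plants; pots flooded 3 cm over soil; compound added to paddy water, depth kept constant. Greenhouse 13–15 d. Visual rating vs controls, 0–100 scale (100 = complete control); dash = no result.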"}, "crabgrass, large [4]": {"system": "crabgrass, large", "assay": "Test A preemergence", "type": "in vivo, Digitaria sanguinalis", "procedure,_shortened": "as §1"}, "pigweed [5]": {"system": "pigweed", "assay": "Test A postemergence", "type": "in vivo, Amaranthus retroflexus", "procedure,_shortened": "as §1"}, "velvetleaf [6]": {"system": "velvetleaf", "assay": "Test A postemergence", "type": "in vivo, Abutilon theophrasti", "procedure,_shortened": "as §1"}, "pigweed [7]": {"system": "pigweed", "assay": "Test A preemergence", "type": "in vivo, Amaranthus retroflexus", "procedure,_shortened": "as §1"}, "rice": {"system": "rice", "assay": "Test B flood", "type": "in vivo, Oryza sativa", "conditions": "250 g ai/ha, visual rating on 0 to 100 scale (0 no effect, 100 complete control), 13 to 15 days", "procedure,_shortened": "as §2"}, "barnyardgrass [8]": {"system": "barnyardgrass", "assay": "Test A postemergence", "type": "in vivo, Echinochloa crus-galli", "procedure,_shortened": "as §1"}, "morningglory [9]": {"system": "morningglory", "assay": "Test A preemergence", "type": "in vivo, Ipomoea spp.", "procedure,_shortened": "as §1"}, "velvetleaf [10]": {"system": "velvetleaf", "assay": "Test A preemergence", "type": "in vivo, Abutilon theophrasti", "procedure,_shortened": "as §1"}, "crabgrass, large [11]": {"system": "crabgrass, large", "assay": "Test A postemergence", "type": "in vivo, Digitaria sanguinalis", "procedure,_shortened": "as §1"}, "barnyardgrass [12]": {"system": "barnyardgrass", "assay": "Test B flood", "type": "in vivo, Echinochloa crus-galli", "conditions": "250 g ai/ha, visual rating on 0 to 100 scale (0 no effect, 100 complete control), 13 to 15 days", "procedure,_shortened": "as §2"}, "sedge, umbrella": {"system": "sedge, umbrella", "assay": "Test B flood", "type": "in vivo, Cyperus difformis", "conditions": "250 g ai/ha, visual rating on 0 to 100 scale (0 no effect, 100 complete control), 13 to 15 days", "procedure,_shortened": "as §2"}, "foxtail, giant [13]": {"system": "foxtail, giant", "assay": "Test A postemergence", "type": "in vivo, Setaria faberii", "procedure,_shortened": "as §1"}, "wheat [14]": {"system": "wheat", "assay": "Test A postemergence", "type": "in vivo, Triticum aestivum", "procedure,_shortened": "as §1"}, "wheat [15]": {"system": "wheat", "assay": "Test A preemergence", "type": "in vivo, Triticum aestivum", "conditions": "preemergence", "procedure,_shortened": "as §1"}, "morningglory [16]": {"system": "morningglory", "assay": "Test A postemergence", "type": "in vivo, Ipomoea spp.", "procedure,_shortened": "as §1"}, "corn [17]": {"system": "corn", "assay": "Test A postemergence", "type": "in vivo, Zea mays", "procedure,_shortened": "as §1"}, "[18]": {"conditions": "Preemergence, 500 g ai/ha, 0 to 100 scale, 0 no effect, 100 complete control"}, "[19]": {"conditions": "preemergence, 125 g ai/ha, visual injury, 0 to 100 scale, approx. 10 days"}, "[20]": {"conditions": "Postemergence, 500 g ai/ha, visual rating after approx. 10 days, 0 to 100 scale (0 no effect, 100 complete control)"}, "[21]": {"conditions": "postemergence, 125 g ai/ha, about 10 days, visual rating on 0 to 100 scale (0 no effect, 100 complete control)"}, "[22]": {"conditions": "500 g ai/ha, visual injury after approx. 10 days, 0 to 100 scale (0 no effect, 100 complete control)"}, "[23]": {"conditions": "preemergence, 500 g ai/ha, visual injury after approx. 10 days, 0 to 100 scale (0 no effect, 100 complete control)"}, "[24]": {"conditions": "preemergence, 125 g ai/ha, visual injury approx. 10 days after treatment"}, "[25]": {"conditions": "Postemergence, 500 g ai/ha, 0 to 100 scale (0 no effect, 100 complete control)"}}}
{"smiles": "Cc1cc(C(=O)NC2CC2)nn1Oc1ccnc(C(F)(F)F)c1", "note": "[Compound 81]", "values": [{"measurement": "Barnyardgrass plant response rating", "setting": "barnyardgrass [1]; [18]", "result": 70}, {"measurement": "Barnyardgrass plant response rating", "setting": "barnyardgrass [1]; [19]", "result": 20}, {"measurement": "Corn plant response rating", "setting": "corn [2]; [18]", "result": 0}, {"measurement": "Corn plant response rating", "setting": "corn [2]; [19]", "result": 0}, {"measurement": "Foxtail, Giant plant response rating", "setting": "foxtail, giant [3]; [18]", "result": 100}, {"measurement": "Foxtail, Giant plant response rating", "setting": "foxtail, giant [3]; [19]", "result": 30}, {"measurement": "Plant response rating, Ducksalad", "setting": "ducksalad", "result": 0}, {"measurement": "Crabgrass, Large plant response rating", "setting": "crabgrass, large [4]; [18]", "result": 100}, {"measurement": "Crabgrass, Large plant response rating", "setting": "crabgrass, large [4]; [19]", "result": 60}, {"measurement": "Pigweed plant response rating", "setting": "pigweed [5]; [20]", "result": 50}, {"measurement": "Pigweed plant response rating", "setting": "pigweed [5]; [21]", "result": 30}, {"measurement": "Velvetleaf plant response rating", "setting": "velvetleaf [6]; [20]", "result": 30}, {"measurement": "Velvetleaf plant response rating", "setting": "velvetleaf [6]; [21]", "result": 20}, {"measurement": "Pigweed plant response rating", "setting": "pigweed [7]; [18]", "result": 90}, {"measurement": "Pigweed plant response rating", "setting": "pigweed [7]; [19]", "result": 40}, {"measurement": "Plant response rating, Rice", "setting": "rice", "result": 0}, {"measurement": "Barnyardgrass plant response rating", "setting": "barnyardgrass [8]; Postemergence, 125 g ai/ha, 0 to 100 scale, 0 no effect, 100 complete control", "result": 0}, {"measurement": "Barnyardgrass plant response rating", "setting": "barnyardgrass [8]; [20]", "result": 20}, {"measurement": "Morningglory plant response rating", "setting": "morningglory [9]; [18]", "result": 60}, {"measurement": "Morningglory plant response rating", "setting": "morningglory [9]; [19]", "result": 0}, {"measurement": "Velvetleaf plant response rating", "setting": "velvetleaf [10]; [18]", "result": 60}, {"measurement": "Velvetleaf plant response rating", "setting": "velvetleaf [10]; [19]", "result": 0}, {"measurement": "Crabgrass, Large plant response rating", "setting": "crabgrass, large [11]; [20]", "result": 40}, {"measurement": "Crabgrass, Large plant response rating", "setting": "crabgrass, large [11]; [21]", "result": 10}, {"measurement": "Plant response rating, Barnyardgrass", "setting": "barnyardgrass [12]", "result": 0}, {"measurement": "Plant response rating, Sedge, Umbrella", "setting": "sedge, umbrella", "result": 0}, {"measurement": "Foxtail, Giant plant response rating", "setting": "foxtail, giant [13]; [20]", "result": 30}, {"measurement": "Foxtail, Giant plant response rating", "setting": "foxtail, giant [13]; [21]", "result": 10}, {"measurement": "Wheat plant response rating", "setting": "wheat [14]; [20]", "result": 0}, {"measurement": "Wheat plant response rating", "setting": "wheat [14]; [21]", "result": 0}, {"measurement": "Wheat plant response rating", "setting": "wheat [15]; 125 g ai/ha, visual injury, 0 to 100 scale, approx. 10 days", "result": 0}, {"measurement": "Wheat plant response rating", "setting": "wheat [15]; [22]", "result": 10}, {"measurement": "Morningglory plant response rating", "setting": "morningglory [16]; [20]", "result": 50}, {"measurement": "Morningglory plant response rating", "setting": "morningglory [16]; [21]", "result": 30}, {"measurement": "Corn plant response rating", "setting": "corn [17]; [20]", "result": 20}, {"measurement": "Corn plant response rating", "setting": "corn [17]; [21]", "result": 10}]}
{"smiles": "O=C(NCC(F)(F)F)c1cc(Br)n(Cc2cccc(C(F)(F)F)c2)n1", "note": "[Compound 161]", "values": [{"measurement": "Barnyardgrass plant response rating", "setting": "barnyardgrass [1]; [19]", "result": 0}, {"measurement": "Barnyardgrass plant response rating", "setting": "barnyardgrass [1]; [23]", "result": 0}, {"measurement": "Corn plant response rating (0 to 100 scale)", "setting": "corn [2]; [24]", "result": 0}, {"measurement": "Corn plant response rating", "setting": "corn [2]; [23]", "result": 0}, {"measurement": "Foxtail, Giant plant response rating (0 to 100 scale)", "setting": "foxtail, giant [3]; [24]", "result": 0}, {"measurement": "Foxtail, Giant plant response rating", "setting": "foxtail, giant [3]; [23]", "result": 20}, {"measurement": "Plant response rating, Ducksalad", "setting": "ducksalad", "result": 0}, {"measurement": "Crabgrass, Large plant response rating (0 to 100 scale)", "setting": "crabgrass, large [4]; [24]", "result": 10}, {"measurement": "Crabgrass, Large plant response rating", "setting": "crabgrass, large [4]; [23]", "result": 70}, {"measurement": "Pigweed plant response rating", "setting": "pigweed [5]; [25]", "result": 70}, {"measurement": "Pigweed plant response rating", "setting": "pigweed [5]; [21]", "result": 40}, {"measurement": "Velvetleaf plant response rating", "setting": "velvetleaf [6]; [25]", "result": 50}, {"measurement": "Velvetleaf plant response rating", "setting": "velvetleaf [6]; [21]", "result": 30}, {"measurement": "Pigweed plant response rating (0 to 100 scale)", "setting": "pigweed [7]; [24]", "result": 10}, {"measurement": "Pigweed plant response rating", "setting": "pigweed [7]; [23]", "result": 80}, {"measurement": "Plant response rating, Rice", "setting": "rice", "result": 0}, {"measurement": "Barnyardgrass plant response rating", "setting": "barnyardgrass [8]; [25]", "result": 10}, {"measurement": "Barnyardgrass plant response rating", "setting": "barnyardgrass [8]; [21]", "result": 10}, {"measurement": "Morningglory plant response rating (0 to 100 scale)", "setting": "morningglory [9]; [24]", "result": 0}, {"measurement": "Morningglory plant response rating", "setting": "morningglory [9]; [23]", "result": 0}, {"measurement": "Velvetleaf plant response rating (0 to 100 scale)", "setting": "velvetleaf [10]; [24]", "result": 0}, {"measurement": "Velvetleaf plant response rating", "setting": "velvetleaf [10]; [23]", "result": 0}, {"measurement": "Crabgrass, Large plant response rating", "setting": "crabgrass, large [11]; [25]", "result": 30}, {"measurement": "Crabgrass, Large plant response rating", "setting": "crabgrass, large [11]; [21]", "result": 20}, {"measurement": "Plant response rating, Barnyardgrass", "setting": "barnyardgrass [12]", "result": 0}, {"measurement": "Plant response rating, Sedge, Umbrella", "setting": "sedge, umbrella", "result": 0}, {"measurement": "Foxtail, Giant plant response rating", "setting": "foxtail, giant [13]; [25]", "result": 20}, {"measurement": "Foxtail, Giant plant response rating", "setting": "foxtail, giant [13]; [21]", "result": 10}, {"measurement": "Wheat plant response rating", "setting": "wheat [14]; [25]", "result": 0}, {"measurement": "Wheat plant response rating", "setting": "wheat [14]; [21]", "result": 0}, {"measurement": "Wheat plant response rating (0 to 100 scale)", "setting": "wheat [15]; 125 g ai/ha, visual injury approx. 10 days after treatment", "result": 0}, {"measurement": "Wheat plant response rating", "setting": "wheat [15]; [22]", "result": 0}, {"measurement": "Morningglory plant response rating", "setting": "morningglory [16]; [25]", "result": 50}, {"measurement": "Morningglory plant response rating", "setting": "morningglory [16]; [21]", "result": 30}, {"measurement": "Corn plant response rating", "setting": "corn [17]; [25]", "result": 10}, {"measurement": "Corn plant response rating", "setting": "corn [17]; [21]", "result": 0}]}
